Patent US20100041089A1, “IMPROVED METHOD FOR DETECTING CHEMICAL […]” (priority 2006, published 2010)

System: yeast genes (expressed mRNA)
Assay: DNA chip measurement of expressed mRNA of yeast genes after culture with a toxic chemical substance
Assay type: cell-based, Saccharomyces cerevisiae S288C
Summary of the method: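 Expression is given as treated/untreated fluorescence ratio on a whole-genome yeast DNA chip, a ratio of two or more being significant. Log-phase S288C cultures in YPD at 25 °C received the chemical for 2 h at a dose that slows growth without killing. mRNA was reverse-transcribed with Cy3- or Cy5-dUTP.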

Structure (SMILES): C[S+](C)[O-] [(15), Dimethyl sulfoxide]
- The level of expressed mRNA in the presence of chemical substance/The level of expressed mRNA in the absence of chemical substance (yeast gene YJL152W, cultured two hours with substance): 0.8
- The level of expressed mRNA in the presence of chemical substance/The level of expressed mRNA in the absence of chemical substance (yeast gene YJL186W, cultured two hours with substance): 2.5
- level of expressed mRNA in the presence of chemical substance / level in the absence of chemical substance (yeast gene YJR030C, cultured two hours with the chemical substance): 0.8
- The level of expressed mRNA in the presence of chemical substance/The level of expressed mRNA in the absence of chemical substance (yeast gene YJR074W, cultured two hours with substance): 3.4
- level of expressed mRNA in the presence of chemical substance / level in the absence of chemical substance (yeast gene YKL051W, cultured two hours with the chemical substance): 1.5
- level of expressed mRNA in the presence of chemical substance / level in the absence of chemical substance (yeast gene YKL097C, cultured two hours with the chemical substance): 0.8
- level of expressed mRNA in the presence of chemical substance / level in the absence of chemical substance (yeast gene YKL100C, cultured two hours with the chemical substance): 1.7
- level of expressed mRNA in the presence of chemical substance / level in the absence of chemical substance (yeast gene YKR040C, cultured two hours with the chemical substance): 1.1
- The level of expressed mRNA in the presence of chemical substance/The level of expressed mRNA in the absence of chemical substance (yeast gene YKR046C, cultured two hours with substance): 2.9
- The level of expressed mRNA in the presence of chemical substance/The level of expressed mRNA in the absence of chemical substance (yeast gene YLR041W, cultured two hours with the chemical substance): 1.3
- The level of expressed mRNA in the presence of chemical substance/The level of expressed mRNA in the absence of chemical substance (yeast gene YLR132C, cultured two hours with substance): 2.3
- The level of expressed mRNA in the presence of chemical substance/The level of expressed mRNA in the absence of chemical substance (yeast gene YLR149C, cultured two hours with substance): 1.3
- The level of expressed mRNA in the presence of chemical substance/The level of expressed mRNA in the absence of chemical substance (yeast gene YLR151C, cultured two hours with the substance): 0.7
- The level of expressed mRNA in the presence of chemical substance/The level of expressed mRNA in the absence of chemical substance (yeast gene YLR152C, cultured two hours with substance): 0.8
- The level of expressed mRNA in the presence of chemical substance/The level of expressed mRNA in the absence of chemical substance (yeast gene YLR205C, cultured two hours with substance): 2.5
- level of expressed mRNA in the presence of chemical substance / level in the absence of chemical substance (yeast gene YLR226W, cultured two hours with the chemical substance): 1.3
- The level of expressed mRNA in the presence of chemical substance/The level of expressed mRNA in the absence of chemical substance (yeast gene YLR304C, mitochondria-located protein gene, cultured two hours with substance): 1.6
- The level of expressed mRNA in the presence of chemical substance/The level of expressed mRNA in the absence of chemical substance (yeast gene YLR307W): 3.9
- level of expressed mRNA in the presence of chemical substance / level in the absence of chemical substance (yeast gene YLR338W, cultured two hours with the chemical substance): 1.5
- The level of expressed mRNA in the presence of chemical substance/The level of expressed mRNA in the absence of chemical substance (yeast gene YLR391W): 3.9
- level of expressed mRNA in the presence of chemical substance / level in the absence of chemical substance (yeast gene YLR392C, cultured two hours with the chemical substance): 0.5
- The level of expressed mRNA in the presence of chemical substance/The level of expressed mRNA in the absence of chemical substance (yeast gene YLR395C, mitochondria-located protein gene, cultured two hours with substance): 0.4
- level of expressed mRNA in the presence of chemical substance / level in the absence of chemical substance (yeast gene YLR415C, cultured two hours with the chemical substance): 1.0
- level of expressed mRNA in the presence of chemical substance / level in the absence of chemical substance (yeast gene YLR427W, cultured two hours with the chemical substance): 0.8
- The level of expressed mRNA in the presence of chemical substance/The level of expressed mRNA in the absence of chemical substance (yeast gene YLR444C, cultured two hours with the substance): 1.3
- level of expressed mRNA in the presence of chemical substance / level in the absence of chemical substance (yeast gene YML013W, cultured two hours with the chemical substance): 2.2
- level of expressed mRNA in the presence of chemical substance / level in the absence of chemical substance (yeast gene YML029W, cultured two hours with the chemical substance): 0.8
- level of expressed mRNA in the presence of chemical substance / level in the absence of chemical substance (yeast gene YML041C, cultured two hours with the chemical substance): 1.0
- level of expressed mRNA in the presence of chemical substance / level in the absence of chemical substance (yeast gene YML079W, cultured two hours with the chemical substance): 0.3
- The level of expressed mRNA in the presence of chemical substance/The level of expressed mRNA in the absence of chemical substance (yeast gene YML128C, cultured two hours with substance): 2.6
- The level of expressed mRNA in the presence of chemical substance/The level of expressed mRNA in the absence of chemical substance (yeast gene YMR031C, cultured two hours with the substance): 0.7
- level of expressed mRNA in the presence of chemical substance / level in the absence of chemical substance (yeast gene YMR068W, cultured two hours with the chemical substance): 2.2
- level of expressed mRNA in the presence of chemical substance / level in the absence of chemical substance (yeast gene YMR071C, cultured two hours with the chemical substance): 0.8
- The level of expressed mRNA in the presence of chemical substance/The level of expressed mRNA in the absence of chemical substance (yeast gene YMR083W, mitochondria-located protein gene, cultured two hours with substance): 1.3
- The level of expressed mRNA in the presence of chemical substance/The level of expressed mRNA in the absence of chemical substance (yeast gene YMR090W, cultured two hours with substance): 1.9
- level of expressed mRNA in the presence of chemical substance / level in the absence of chemical substance (yeast gene YMR160W, cultured two hours with the chemical substance): 1.5
- level of expressed mRNA in the presence of chemical substance / level in the absence of chemical substance (yeast gene YNL026W, cultured two hours with the chemical substance): 0.8
- level of expressed mRNA in the presence of chemical substance / level in the absence of chemical substance (yeast gene YNL058C, cultured two hours with the chemical substance): 2.2
- level of expressed mRNA in the presence of chemical substance / level in the absence of chemical substance (yeast gene YNL063W, cultured two hours with the chemical substance): 0.7
- level of expressed mRNA in the presence of chemical substance / level in the absence of chemical substance (yeast gene YNL176C, cultured two hours with the chemical substance): 0.8
- level of expressed mRNA in the presence of chemical substance / level in the absence of chemical substance (yeast gene YNL194C, cultured two hours with the chemical substance): 0.5
- level of expressed mRNA in the presence of chemical substance / level in the absence of chemical substance (yeast gene YNL200C, cultured two hours with the chemical substance): 0.8
- The level of expressed mRNA in the presence of chemical substance/The level of expressed mRNA in the absence of chemical substance (yeast gene YNL241C, cultured for two hours with substance): 7.0
- level of expressed mRNA in the presence of chemical substance / level in the absence of chemical substance (yeast gene YNL253W, cultured two hours with the chemical substance): 0.5
- level of expressed mRNA in the presence of chemical substance / level in the absence of chemical substance (yeast gene YNL276C, cultured two hours with the chemical substance): 0.5
- level of expressed mRNA in the presence of chemical substance / level in the absence of chemical substance (yeast gene YNR051C, cultured two hours with the chemical substance): 1.2
- The level of expressed mRNA in the presence of chemical substance/The level of expressed mRNA in the absence of chemical substance (yeast gene YNR074C, cultured two hours with substance): 0.8
- level of expressed mRNA in the presence of chemical substance / level in the absence of chemical substance (yeast gene YOL026C, cultured two hours with the chemical substance): 0.9
- The level of expressed mRNA in the presence of chemical substance/The level of expressed mRNA in the absence of chemical substance (yeast gene YOR007C, cultured two hours with substance): 1.3
- level of expressed mRNA in the presence of chemical substance / level in the absence of chemical substance (yeast gene YOR022C, cultured two hours with the chemical substance): 0.8
- The level of expressed mRNA in the presence of chemical substance/The level of expressed mRNA in the absence of chemical substance (yeast gene YOR049C, cultured two hours with substance): 1.3
- level of expressed mRNA in the presence of chemical substance / level in the absence of chemical substance (yeast gene YOR087W, cultured two hours with the chemical substance): 0.8
- level of expressed mRNA in the presence of chemical substance / level in the absence of chemical substance (yeast gene YOR138C, cultured two hours with the chemical substance): 1.0
- The level of expressed mRNA in the presence of chemical substance/The level of expressed mRNA in the absence of chemical substance (yeast gene YOR152C, cultured two hours with substance): 3.6
- The level of expressed mRNA in the presence of chemical substance/The level of expressed mRNA in the absence of chemical substance (yeast gene YOR187W, mitochondria-located protein gene, cultured two hours with substance): 1.3
- The level of expressed mRNA in the presence of chemical substance/The level of expressed mRNA in the absence of chemical substance (yeast gene YOR215C, cultured two hours with substance): 0.8
- The level of expressed mRNA in the presence of chemical substance/The level of expressed mRNA in the absence of chemical substance (yeast gene YOR248W, cultured two hours with substance): 8.8
- level of expressed mRNA in the presence of chemical substance / level in the absence of chemical substance (yeast gene YOR253W, cultured two hours with the chemical substance): 1.1
- level of expressed mRNA in the presence of chemical substance / level in the absence of chemical substance (yeast gene YOR267C, cultured two hours with the chemical substance): 1.3
- level of expressed mRNA in the presence of chemical substance / level in the absence of chemical substance (yeast gene YOR325W, cultured two hours with the chemical substance): 0.7
- The level of expressed mRNA in the presence of chemical substance/The level of expressed mRNA in the absence of chemical substance (yeast gene YOR382W, cultured two hours with substance): 2.1
- The level of expressed mRNA in the presence of chemical substance/The level of expressed mRNA in the absence of chemical substance (yeast gene YOR386W, mitochondria-located protein gene, cultured two hours with substance): 1.3
- level of expressed mRNA in the presence of chemical substance / level in the absence of chemical substance (yeast gene YPL005W, cultured two hours with the chemical substance): 1.2
- The level of expressed mRNA in the presence of chemical substance/The level of expressed mRNA in the absence of chemical substance (yeast gene YPL087W, cultured two hours with substance): 1.3
- level of expressed mRNA in the presence of chemical substance / level in the absence of chemical substance (yeast gene YPL150W, cultured two hours with the chemical substance): 1.1
- level of expressed mRNA in the presence of chemical substance / level in the absence of chemical substance (yeast gene YPL152W, cultured two hours with the chemical substance): 2.3
- level of expressed mRNA in the presence of chemical substance / level in the absence of chemical substance (yeast gene YPL168W, cultured two hours with the chemical substance): 0.8
- level of expressed mRNA in the presence of chemical substance / level in the absence of chemical substance (yeast gene YPL180W, cultured two hours with the chemical substance): 0.7
- level of expressed mRNA in the presence of chemical substance / level in the absence of chemical substance (yeast gene YPL188W, cultured two hours with the chemical substance): 0.8
- The level of expressed mRNA in the presence of chemical substance/The level of expressed mRNA in the absence of chemical substance (yeast gene YPL206C, cultured two hours with substance): 0.8
- level of expressed mRNA in the presence of chemical substance / level in the absence of chemical substance (yeast gene YPL221W, cultured two hours with the chemical substance): 1.0
- level of expressed mRNA in the presence of chemical substance / level in the absence of chemical substance (yeast gene YPL225W, cultured two hours with the chemical substance): 0.9
- The level of expressed mRNA in the presence of chemical substance/The level of expressed mRNA in the absence of chemical substance (yeast gene YPR014C, cultured two hours with the substance): 0.9
- The level of expressed mRNA in the presence of chemical substance/The level of expressed mRNA in the absence of chemical substance (yeast gene YPR023C, cultured two hours with substance): 0.8
- The level of expressed mRNA in the presence of chemical substance/The level of expressed mRNA in the absence of chemical substance (yeast gene YPR037C, mitochondria-located protein gene, cultured two hours with substance): 4.1
- level of expressed mRNA in the presence of chemical substance / level in the absence of chemical substance (yeast gene YPR049C, cultured two hours with the chemical substance): 1.5
- level of expressed mRNA in the presence of chemical substance / level in the absence of chemical substance (yeast gene YPR146C, cultured two hours with the chemical substance): 0.9
- level of expressed mRNA in the presence of chemical substance / level in the absence of chemical substance (yeast gene YPR148C, cultured two hours with the chemical substance): 1.7
- level of expressed mRNA in the presence of chemical substance / level in the absence of chemical substance (yeast gene YPR172W, cultured two hours with the chemical substance): 1.5
